These results are taken from US8604001B2, “Use of sulfated oligosaccharides as slimming cosmetic ingredients” (priority 2007, dated 2013).

In test [1] the test system is normal human adipocytes. Kind of test: Inhibition of lipogenesis ([2-14C] acetate incorporation into lipids) in suspensions of human adipocytes. The format is cell-based. The note with it: 1 mM; for cpm (radioactivity of extracted lipids): 1 h preincubation, 4 h with [2-14C] acetate, control 472253. The method, then:
The ex vivo inhibition of lipogenesis was evaluated in suspensions of human adipocytes which were isolated from a sampling taken during an abdominal plasty performed on a person. The adipocytes suspension was incubated for one hour at 37° C. with 3 or 5% of a solution of sulfated oligosaccharides prepared according to example 1 (hydrolysis time: 16 hours), or with a standard study solution (1 mM theophylline or caffeine), on in the absence of these solutions (control). Each assay was done in triplicate. A radioactive marker [2-^14C] acetate was then added to the various assays at a concentration of 2.5 μCi/mL. After 4 hours of incubation at 37° C., the lipids were extracted by a methanol/chloroform/water mixture and then dehydrated. The radioactivity, expressed in counts per minute (cpm), is then quantified through liquid scintigraphy (LKB 1210 Rackbeta). The statistical analysis was performed according to the Dunnett's multiple comparison test.

For test [2], the system named is normal human adipocytes. Description: Stimulation of lipolysis (Non-Esterified Fatty Acids released) in suspensions of human adipocytes. The note with it: 1 mM; for NEFA: 2 hours at 37° C., control 96. The test is classed as cell-based. The method, then: The lipolysis stimulation activity was evaluated in suspensions of human adipocytes isolated from a sample taken during an abdominal plasty performed on a person. The adipocytes suspension was incubated, for 2 hours at 37° C. with 3 or 5% of a solution of sulfated oligosaccharides prepared according to example 1 (16 hours of, hydrolysis time) in percentage of total weight of the culture, or with standard study solutions (1 mM theophylline or caffeine) or in the absence of solutions (control). Each assay was performed 6 times. At the end of the incubation period, the Non-Esterified Fatty Acids (NEFA) which were; present in the incubation mediums were measured with commercially available dosage kits (OXOID 46 551).

The subject of test [3] is thighs of healthy volunteers. Kind of test: Slimming effect of hydro-alcohol gels: thigh circumference measured in centimeters over 8 weeks. The note with it: for change of thigh circumference versus T0: hydro-alcohol gel applied twice a day, 25 volunteers.

Structures are written as SMILES.

For the compound `Cn1c(=O)c2c(ncn2C)n(C)c1=O` [Caffeine, caffeine], the “% Control (lipogenesis)” value in the test with normal human adipocytes [1] worked out at 4%. In addition, the “cpm (radioactivity of extracted lipids)” value in the test with normal human adipocytes [1] came to 20741 cpm. For the same compound, the “% Control (lipolysis, NEFA)” value with normal human adipocytes [2] is given as 547%. For the same compound, the “NEFA” value in the test with normal human adipocytes [2] turned out to be 525 µM. The “change of thigh circumference versus T0” value in test [3] (14 days) was 0 cm; in test [3] (28 days) it was −0.1 cm; in test [3] (56 days) it was −0.3 cm. The “average decrease of the circumference of the thigh” value in test [3] (56 days, gel applied twice a day) is on record as 0.3 cm. In addition, the “slimming effect (in words)” value in test [3] (after 14 treatment days) was “no slimming effect”.

With `Cn1c(=O)c2[nH]cnc2n(C)c1=O` [Theophylline, theophylline], in the test with normal human adipocytes [1], the “% Control (lipogenesis)” value came to 6% and the “cpm (radioactivity of extracted lipids)” value was 27225 cpm. Further, in the test on normal human adipocytes [2], the “% Control (lipolysis, NEFA)” value is given as 560% and the “NEFA” value is 537 µM.
